Biological target: T1, P2Y12 receptor (Homo sapiens, UniProt Q9H244)
T1 construct: expressed in transfected cells; host or cells: CHO cells (membranes)
Test: Functional inhibition of 2-Me-S-ADP induced P2Y12 signalling (35S-GTPγS, membranes from P2Y12 transfected CHO-cells)
Format: biochemical
Settings: EC80 concentration of agonist 2-methyl-thio-adenosine diphosphate, 30° C. for 45 min
Protocol: Functional inhibition of the P2Y12 receptor can be measured by in vitro assays using cell membranes from P2Y12 transfected CHO-cells, the methodology is indicated below.
Functional inhibition of 2-Me-S-ADP induced P2Y12 signalling: 5 μg of membranes were diluted in 200 μl of 200 mM NaCl, 1 mM MgCl2, 50 mM HEPES (pH 7.4), 0.01% BSA, 30 μg/ml saponin and 10 μM GDP. To this was added an EC80 concentration of agonist (2-methyl-thio-adenosine diphosphate), the required concentration of test compound and 0.1 μCi ^35S-GTPγS. The reaction was allowed to proceed at 30° C. for 45 min. Samples were then transferred on to GF/B filters using a cell harvester and washed is with wash buffer (50 mM Tris (pH 7.4), 5 mM MgCl2, 50 mM NaCl). Filters were then covered with scintilant and counted for the amount of ^35S-GTPγS retained by the filter. Maximum activity was that determined in the presence of the agonist and minimum activity in the absence of the agonist following subtraction of the value determined for non-specific activity. The effect of compounds at various concentrations was plotted according to the equation
y=A+((B−A)/(1+((C/x)̂D)))
and IC50 estimated where A is the bottom plateau of the curve i.e. the final minimum y value B is the top of the plateau of the curve i.e. the final maximum y value C is the x value at the middle of the curve. […]

T1 sequence (Q9H244 whole entry): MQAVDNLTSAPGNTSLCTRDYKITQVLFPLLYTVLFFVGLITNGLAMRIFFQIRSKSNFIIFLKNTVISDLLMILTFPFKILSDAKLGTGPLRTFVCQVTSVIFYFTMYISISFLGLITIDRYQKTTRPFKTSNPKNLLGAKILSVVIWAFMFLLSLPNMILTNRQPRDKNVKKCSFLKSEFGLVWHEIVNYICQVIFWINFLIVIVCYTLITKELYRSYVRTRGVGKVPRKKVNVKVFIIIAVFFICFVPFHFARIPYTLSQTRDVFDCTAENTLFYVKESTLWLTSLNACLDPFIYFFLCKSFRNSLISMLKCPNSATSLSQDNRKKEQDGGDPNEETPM

SMILES: CCOC(=O)c1cc(C#N)c(NC2CCC(C(=O)NS(=O)(=O)c3ccc(Cl)s3)C2)nc1C(F)(F)F (stereo not shown) [Example 3, Ethyl 6-{[3-({[(5-chloro-2-thienyl)sulfonyl]amino}carbonyl)cyclopentyl]amino}-5-cyano-2-(trifluoromethyl)nicotinate]
- IC50: 810 nM

Source: US20090286834A1, “Pyridine Analogues VI” (AstraZeneca AB, priority 2006, published 2009)
